# Source: paper PMC12550276 (Life Science Alliance, 2025)
# Tests used:
# REPh = target: T1, REPh (Phrixothrix hirtus, UniProt Q9U4U7, L334R); assay: HDX-MS, apo vs ligand-bound; type: binding; conditions: 5 mM ATP together with 5 mM luciferin (not separable), 50 mM MgCl2, pD 7.5, 25°C
# T1 construct: N-terminal His6-tag kept (no cleavage told), pET28b, E. coli BL21-CodonPlus-RIL; ~550 residues; higher oligomer by SEC (octamer in crystal)
# T1 sequence (Q9U4U7 1-546 L334R): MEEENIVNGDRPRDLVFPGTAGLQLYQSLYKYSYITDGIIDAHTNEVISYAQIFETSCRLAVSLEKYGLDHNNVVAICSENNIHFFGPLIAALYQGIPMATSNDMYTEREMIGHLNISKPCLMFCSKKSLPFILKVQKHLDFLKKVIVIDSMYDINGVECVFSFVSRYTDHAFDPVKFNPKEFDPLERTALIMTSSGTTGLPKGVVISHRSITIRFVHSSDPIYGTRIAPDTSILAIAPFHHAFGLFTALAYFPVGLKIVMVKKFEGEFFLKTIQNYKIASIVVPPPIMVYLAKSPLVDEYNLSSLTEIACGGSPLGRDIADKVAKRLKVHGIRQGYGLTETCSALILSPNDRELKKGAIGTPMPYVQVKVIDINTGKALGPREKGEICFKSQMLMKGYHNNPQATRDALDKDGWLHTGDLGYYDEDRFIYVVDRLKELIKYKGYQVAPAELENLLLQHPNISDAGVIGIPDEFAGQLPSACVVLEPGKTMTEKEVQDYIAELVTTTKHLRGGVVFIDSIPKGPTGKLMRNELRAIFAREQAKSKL
# GBAv = target: T2, GBAv (Amydetes, UniProt A0A3F2YLV6, R337L); assay: HDX-MS, apo vs ligand-bound; type: binding; conditions: 5 mM ATP together with 5 mM luciferin (not separable), 50 mM MgCl2, pD 7.5, 25°C
# T2 construct: N-terminal His6-tag kept (no cleavage told), pET28b, E. coli BL21-CodonPlus-RIL; ~550 residues; monomer by SEC
# T2 sequence (A0A3F2YLV6 entry or part of it R337L): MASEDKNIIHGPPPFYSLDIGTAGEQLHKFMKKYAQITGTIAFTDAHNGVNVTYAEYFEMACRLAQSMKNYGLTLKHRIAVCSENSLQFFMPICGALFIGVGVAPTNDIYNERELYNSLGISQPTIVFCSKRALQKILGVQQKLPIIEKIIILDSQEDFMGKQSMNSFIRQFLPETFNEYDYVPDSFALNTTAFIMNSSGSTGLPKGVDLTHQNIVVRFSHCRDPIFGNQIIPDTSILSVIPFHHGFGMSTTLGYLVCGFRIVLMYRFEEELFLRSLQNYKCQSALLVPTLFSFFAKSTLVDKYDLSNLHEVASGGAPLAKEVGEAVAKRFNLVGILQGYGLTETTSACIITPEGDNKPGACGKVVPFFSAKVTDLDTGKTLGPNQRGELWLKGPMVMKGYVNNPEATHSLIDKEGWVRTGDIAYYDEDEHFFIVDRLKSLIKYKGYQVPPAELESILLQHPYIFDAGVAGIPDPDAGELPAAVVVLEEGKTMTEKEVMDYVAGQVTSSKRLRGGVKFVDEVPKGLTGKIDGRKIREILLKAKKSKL
compound,measurement,setting,value
Nc1ncnc2c1ncn2[C@@H]1O[C@H](COP(=O)(O)OP(=O)(O)OP(=O)(O)O)[C@@H](O)[C@H]1O [ATP],"HDX-MS, apo vs ligand-bound",REPh,"Upon substrate binding, deuterium uptake by peptides-2 and -3 decreased in all variants"
same,"HDX-MS, apo vs ligand-bound",GBAv,"Upon substrate binding, deuterium uptake by peptides-2 and -3 decreased in all variants"
